This is an account of results in patent publication US4522752A, “Retro-inverso analogues of the bradykinin potentiating peptide BPP5a and methods for their preparation” (E.N.I. Ente Nazionale Idrocarburi, priority 1983, dated 1985).

The target of assay [1] is T1, angiotensin conversion enzyme (Oryctolagus cuniculus, UniProt P12822).
T1 construct: the enzyme isolated from rabbit lungs; from tissue; host or cells: rabbit lung
T1 sequence (P12822 34-1310): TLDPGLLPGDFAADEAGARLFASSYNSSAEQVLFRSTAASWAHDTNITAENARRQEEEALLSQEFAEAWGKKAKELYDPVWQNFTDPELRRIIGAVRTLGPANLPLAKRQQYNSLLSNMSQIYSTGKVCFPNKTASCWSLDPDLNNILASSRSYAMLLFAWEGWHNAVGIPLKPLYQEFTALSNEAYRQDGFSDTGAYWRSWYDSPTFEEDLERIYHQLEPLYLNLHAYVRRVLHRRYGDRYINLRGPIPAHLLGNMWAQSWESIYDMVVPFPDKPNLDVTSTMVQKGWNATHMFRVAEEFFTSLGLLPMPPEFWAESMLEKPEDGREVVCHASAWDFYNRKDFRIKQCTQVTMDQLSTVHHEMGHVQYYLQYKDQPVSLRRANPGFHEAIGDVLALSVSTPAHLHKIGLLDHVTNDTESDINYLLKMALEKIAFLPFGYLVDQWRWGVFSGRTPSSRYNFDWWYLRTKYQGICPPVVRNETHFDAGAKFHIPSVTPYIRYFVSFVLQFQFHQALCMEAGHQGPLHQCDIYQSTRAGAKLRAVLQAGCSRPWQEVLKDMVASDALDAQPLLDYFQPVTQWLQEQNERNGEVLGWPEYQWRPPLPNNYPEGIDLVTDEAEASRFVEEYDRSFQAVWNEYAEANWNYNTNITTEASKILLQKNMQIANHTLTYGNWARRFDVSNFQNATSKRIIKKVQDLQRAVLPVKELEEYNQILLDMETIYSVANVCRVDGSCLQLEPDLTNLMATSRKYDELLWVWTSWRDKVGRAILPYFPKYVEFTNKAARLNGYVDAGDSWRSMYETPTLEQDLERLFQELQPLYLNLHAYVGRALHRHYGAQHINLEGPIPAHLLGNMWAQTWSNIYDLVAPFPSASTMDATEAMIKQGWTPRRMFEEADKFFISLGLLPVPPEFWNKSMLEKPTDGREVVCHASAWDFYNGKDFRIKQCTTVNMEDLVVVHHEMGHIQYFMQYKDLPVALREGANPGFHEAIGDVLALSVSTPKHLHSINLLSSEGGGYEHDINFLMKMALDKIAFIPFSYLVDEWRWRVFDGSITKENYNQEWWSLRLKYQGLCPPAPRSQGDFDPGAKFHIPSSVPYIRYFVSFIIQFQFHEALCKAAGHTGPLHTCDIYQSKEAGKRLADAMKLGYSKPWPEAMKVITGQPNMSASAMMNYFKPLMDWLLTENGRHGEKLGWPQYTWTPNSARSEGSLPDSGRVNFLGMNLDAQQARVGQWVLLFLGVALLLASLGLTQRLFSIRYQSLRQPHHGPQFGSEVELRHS
As to the kind of experiment: Inhibition of the angiotensin conversion enzyme in vitro (method of Cushman and Cheung). The format is biochemical. The conditions noted are these: enzyme isolated from rabbit lungs, read-out: I50. The method, then: The inhibition of the angiotensin conversion enzyme by the compounds of general formula (I) is measured in vitro by the enzyme isolated from rabbit lungs by the method of Cushman and Cheung [Biochem. Pharmacol., 20, 1637 (1971)].

The target in assay [2] is T1, angiotensin conversion enzyme. The settings on record: literature value given in Table 1; read-out: I50 (lit.); cited from earlier work.
For assay [3] the following is noted: oral administration; needs intravenous administration; cited from earlier work.

Where two headings read alike, the source gives them in different places. Where a SMILES comes first, the peptide text is derived from it. [ ]: non-standard residue; d: D form. The star is where a group is joined. Hyp = O=C(O)[C@@H]1C[C@@H](O)CN1; pGlu = O=C1CC[C@@H](C(=O)O)N1; Bn = c1ccc(C*)cc1

For the compound `C[C@H](NC(=O)[C@H](Cc1ccccc1)NC(=O)[C@H](CCCCN)NC(=O)[C@@H]1CCC(=O)N1)C(=O)N1C[C@H](OCc2ccccc2)C[C@H]1C(=O)O` [Glp--Lys--Phe--Ala--Hyp(OBz), pyroglutamyl-lysyl-phenylalanyl-alanyl-(4-benzyloxy)-proline] ([pGlu]KFA[Hyp](Bn)-OH), in assay [1], the IC50 was 110 nM.

Turning to `C[C@H](NC(=O)[C@H](Cc1ccccc1)NC(=O)[C@H](CCCCN)NC(=O)[C@@H]1CCC(=O)N1)C(=O)N1CCC[C@H]1C(=O)O` [Glp--Lys--Phe--Ala--Pro] ([pGlu]KFAP-OH), the IC50 in assay [1] is 130 nM; in assay [2], 70 nM.

In the case of `C[C@H](NC(=O)C(Cc1ccccc1)C(=O)N[C@H](CCCCN)C(=O)NC1CCC(=O)N1)C(=O)N1CCC[C@H]1C(=O)O` (stereo partly drawn) [gGlp--D-Lys--mPhe--Ala--Pro, gem-pyroglutamyl-D-lysyl-(R,S)-malonyl-(2-benzyl)-alanyl-proline], in assay [1], the IC50 worked out at 85000 nM.

Consider `CC[C@H](C)[C@H](NC(=O)[C@H](CCC(N)=O)NC(=O)[C@@H]1CCCN1C(=O)[C@H](CCCNC(=N)N)NC(=O)[C@@H]1CCCN1C(=O)[C@H](Cc1c[nH]c2ccccc12)NC(=O)[C@@H]1CCC(=O)N1)C(=O)N1CCC[C@H]1C(=O)N1CCC[C@H]1C(=O)O` [teprotide], for which the oral activity entry in assay [3] was “inactive orally”.
